Results published in the NIST ThermoML archive (doi:10.1016/j.fluid.2004.11.024).
“And” between values parts separate entries of the source, which are not always exact repeats. Identical values can stand only once. ± gives the expanded uncertainty stated by the source.

Details: Liquid, Transpiration method

CC(C)COc1cccc(Br)c1 [1-bromo-3-isobutoxybenzene]
Details | vapor or sublimation pressure [kPa]
290.2 K | 0.00145 ± 8e-05
293.3 K | 0.00194 ± 0.0001
295.2 K | 0.00232 ± 0.00012
298.1 K | 0.00301 ± 0.00016
301.1 K | 0.00389 ± 0.0002
303.2 K | 0.00465 ± 0.00025
306.2 K | 0.00607 ± 0.00032
308.1 K | 0.00703 ± 0.00037
311.3 K | 0.00909 ± 0.00048
313.2 K | 0.0106 ± 0.00056
316.1 K | 0.01312 ± 0.00069
318.3 K | 0.01567 ± 0.00082
321.3 K | 0.01929 ± 0.001
323.2 K | 0.02231 ± 0.0012

Cc1ccc(OCC(C)C)c(Br)c1 [2-bromo-1-isobutoxy-4-methylbenzene]
Details | vapor or sublimation pressure
293.2 K | 0.0006 ± 3e-05 kPa
295.2 K | 0.00076 ± 4e-05 kPa
298.3 K | 0.00103 ± 5e-05 kPa
300.2 K | 0.0012 ± 6e-05 kPa
301.2 K | 0.00132 ± 7e-05 kPa
303.1 K | 0.0016 ± 8e-05 kPa
303.8 K | 0.00167 ± 9e-05 kPa
306.1 K | 0.00208 ± 0.00011 kPa
306.2 K | 0.00213 ± 0.00011 kPa
308.2 K | 0.00261 ± 0.00014 kPa
309.1 K | 0.00271 ± 0.00014 kPa
311.1 K | 0.00328 ± 0.00017 kPa
311.2 K | 0.00322 ± 0.00017 kPa
313.2 K | 0.00385 ± 0.00021 kPa
316.3 K | 0.00506 ± 0.00027 kPa
318.2 K | 0.00591 ± 0.00031 kPa
318.7 K | 0.00622 ± 0.00033 kPa
321.2 K | 0.00746 ± 0.00039 kPa
321.3 K | 0.00752 ± 0.0004 kPa and 0.00762 ± 0.0004 kPa
323.2 K | 0.00914 ± 0.00048 kPa and 0.00897 ± 0.00047 kPa and 0.00883 ± 0.00047 kPa
326.2 K | 0.01113 ± 0.00058 kPa
328.2 K | 0.01293 ± 0.00067 kPa

CC(C)COc1ccc(Br)cc1 [1-bromo-4-isobutoxybenzene]
Details | vapor or sublimation pressure [kPa]
293.2 K | 0.00151 ± 8e-05
298.3 K | 0.00242 ± 0.00013
301.2 K | 0.00304 ± 0.00016
303.2 K | 0.00351 ± 0.00019
306.2 K | 0.0048 ± 0.00025
308.4 K | 0.00538 ± 0.00028
311.3 K | 0.00687 ± 0.00036
313.3 K | 0.0081 ± 0.00043
316.2 K | 0.0101 ± 0.00053
318.3 K | 0.01175 ± 0.00062
321.3 K | 0.01498 ± 0.00078
323.2 K | 0.01699 ± 0.0009
326.3 K | 0.0224 ± 0.0012
328.2 K | 0.02634 ± 0.0014
331.2 K | 0.03352 ± 0.0018
333.2 K | 0.0391 ± 0.002

CC(C)COc1ccccc1Br [1-bromo-2-isobutoxybenzene]
Details | vapor or sublimation pressure [kPa]
293.3 K | 0.00213 ± 0.00011
295.3 K | 0.00252 ± 0.00013
298.1 K | 0.00325 ± 0.00017
301.2 K | 0.00423 ± 0.00022
303.3 K | 0.00511 ± 0.00027
306.2 K | 0.00634 ± 0.00033
308.3 K | 0.00753 ± 0.0004
311.2 K | 0.00954 ± 0.0005
313.3 K | 0.01119 ± 0.00059
316.3 K | 0.01398 ± 0.00073
318.2 K | 0.01628 ± 0.00085
321.3 K | 0.02031 ± 0.001
323.2 K | 0.02325 ± 0.0012
